Source: patent publication US20030034248A1, “Electrodeposition baths containing boron-containing compounds and methods related thereto” (priority 2001, published 2003)

Tested on: bacteria
Experiment: Bacteria resistance testing: bacteria counts (spread plate, R2A agar) in infected electrodeposition ultrafiltrate permeate
Type: cell-based
Settings: for Bacteria Count 3 day: plated at 3 days; for Bacteria Count 7 day: plated at 7 days; for Bacteria Count 10 day: plated at 10 days
Description: Infected ultrafiltrate from an online electrodeposition bath tank (containing E6100H, commercially available from PPG Industries, Inc.) having a bacterial count of 4.5×10^6 cfu/mL was used to inoculate filter-sterilized ultrafiltrate (“permeate”) collected from the same line. The infected ultrafiltrate was diluted by a factor of 10^4 into the sterile permeate. The infected permeate was added to reactors. The various acids listed below in the following Table 2 were prepared as 1 % solutions in water and tested at 2000, 1000, 500, 200, 100, and 50 ppm of active material. Reactors were rolled for 10 days at 32° C. and were plated for bacteria counts at 3, 7, and 10 days.
The enumeration of […] heterotrophs in the reactors utilized the standard spread plate method as described in Standard Methods for the Examination of Water and Wastewater, 1992, section 9215C. Bacterial counts were examined using R2A agar plates. 100 μL of a suitable dilution of sample was pipetted onto the surface of the media and spread with an alcohol and flame sterilized glass rod. The plates were inverted and incubated for 3 days at 32° C. with periodic examination. Colony forming units were counted on a New Brunswick Bactronic Colony Counter. A target of 30 to 300 cfu per plate was considered a valid count.

[1] = acid at 50 ppm of active material (boric acid: 8.9 ppm B), 32° C.
[2] = acid at 100 ppm of active material (boric acid: 17.8 ppm B), 32° C.
[3] = acid at 200 ppm of active material (boric acid: 35.5 ppm B), 32° C.
[4] = acid at 500 ppm of active material (boric acid: 89 ppm B), 32° C.
[5] = acid at 1000 ppm of active material (boric acid: 177.5 ppm B), 32° C.
[6] = acid at 2000 ppm of active material (boric acid: 355 ppm B), reactors rolled at 32° C.

SMILES	Bacteria Count 3 day [1]	Bacteria Count 7 day [1]	Bacteria Count 10 day [1]	Bacteria Count 3 day [2]	Bacteria Count 7 day [2]	Bacteria Count 10 day [2]	Bacteria Count 3 day [3]	Bacteria Count 7 day [3]	Bacteria Count 10 day [3]	Bacteria Count 3 day [4]	Bacteria Count 7 day [4]	Bacteria Count 10 day [4]	Bacteria Count 3 day [5]	Bacteria Count 7 day [5]	Bacteria Count 10 day [5]	Bacteria Count 3 day [6]	Bacteria Count 7 day [6]	Bacteria Count 10 day [6]	levels at which the growth of bacteria is retarded (as compared to lactic acid in an analogous composition, summary of Table 2) [ppm]
OB(O)O [Boric Acid]	8.8 × 10^2	4.6 × 10^6	4.0 × 10^3	3.0 × 10^2	5.6 × 10^5	1.4 × 10^7	3.6 × 10^2	2.8 × 10^3	2.0 × 10^6	<4.0 × 10^1	<4.0 × 10^1	<4.0 × 10^1	<4.0 × 10^1	<4.0 × 10^1	<4.0 × 10^1	<4.0 × 10^1	<4.0 × 10^1	<4.0 × 10^1	≥ 500
CC(O)C(=O)O (stereo not shown) [Lactic Acid, reference compound]	9.2 × 10^5	4.4 × 10^7	3.8 × 10^7	8.8 × 10^5	4.4 × 10^7	2.4 × 10^6	1.5 × 10^6	1.6 × 10^7	1.2 × 10^7	1.6 × 10^7	4.0 × 10^7	2.8 × 10^6	9.6 × 10^6	3.2 × 10^7	<4.0 × 10^5	2.1 × 10^6	4.8 × 10^7	1.1 × 10^7	
